Laboratory results taken from US20250090524A1, “BTK INHIBITORS” (BIOGEN MA INC., priority 2021, published 2025).

Key:
[1] = biological target: T1, BTK (Homo sapiens, UniProt Q06187); experiment: In Vitro BTK Kinase Assay: Btk-PolyGAT-LS Assay; type: biochemical; settings: active BTK enzyme 0.25 nM, fluorescein-labeled polyGAT peptide 100 nM, 30 minutes incubation, TRF readout; read-out: In Vitro BTK Kinase Assay IC50 Score
T1 construct: purchased Upstate 14-552
Experimental: The purpose of the BTK in vitro assay is to determine compound potency against BTK through the measurement of IC50. Compound inhibition is measured after monitoring the amount of phosphorylation of a fluorescein-labeled polyGAT peptide (Invitrogen PV3611) in the presence of active BTK enzyme (Upstate 14-552), ATP, and inhibitor. The BTK kinase reaction was done in a black 96 well plate (costar 3694). For a typical assay, a 24 μL aliquot of a ATP/peptide master mix (final concentration; ATP […], polyGAT 100 nM) in kinase buffer (10 mM Tris-HCl pH 7.5, 10 mM MgCl2, 200 μM […], 5 mM DTT, 0.01% Triton X-100, and 0.2 mg/ml casein) is added to each well. Next, I uL of a 4-fold, 40× compound titration in 100% DMSO solvent is added, followed by adding […] of BTK enzyme mix in 1× kinase buffer (with a final concentration of 0.25 nM). The assay is incubated for 30 minutes before being stopped with […] of a 50 mM EDTA solution. Aliquots (5 uL) of the kinase reaction are transferred to a low volume white 384 well plate (Corning 3674), and […] of a 2× detection buffer (Invitrogen PV3574, with 4 nM Tb-PY20 antibody, Invitrogen PV3552) is added. The plate is covered and incubated for 45 minutes at room temperature. Time resolved fluorescence (TRF) on Molecular Devices M5 (332 nm excitation; 488 nm emission; 518 nm fluorescein emission) is measured. IC50 values are calculated using a four parameter fit with 100% enzyme activity determined from the DMSO control and 0% activity from the EDTA control.
“†” represents an IC50 of greater than 1 μM and equal to or less than 10 μM. “††” represents an IC50 of greater than 10 nM and equal to or less than 1 μM (10 nM<IC50≤1 μM). “†††” represents an IC50 of greater than 1 nM and equal to or less than 10 nM (1 nM<IC50≤10 nM). “††††” represents an IC50 of less than 1 nM.

[2] = system: CD69 expression on CD19+ B cells in human whole blood; experiment: In Vitro Whole Blood CD69 Assay; type: cell-based; settings: B-cell; human heparinized whole blood, anti-human IgD stimulation, overnight (18 to 22 hours), percentage of CD19+ B cells expressing CD69, flow cytometry; read-out: In Vitro HWB CD69 Assay IC50 Score
Experimental: Human heparinized venous blood from health donors was aliquoted into 96-well plate and “spiked” with serial dilutions of formula I compounds in DMSO or with DMSO without drug. The final concentration of DMSO in all wells was 0.1%. The plate was incubated at 37° C. for 30 min. Drug-containing samples were stimulated with […] mouse anti-human IgD-dextran (1A62) or 20 μg/mL polyclonal rabbit F(ab′)2 anti-human IgD.
Phosphate-buffered saline (PBS) was added to the negative control unstimulated sample and the plates were incubated overnight (18 to 22 hours) at 37° C. Cells were stained with fluorochrome-conjugated anti-CD19 and anti-CD69 antibodies. Lyse/fix solution was used to remove red blood cells by hypotonic lysis and to fix the remaining cells, which were then analyzed by flow cytometry. CD19+B cells were gated and analyzed for CD69 expression.
The percentage of B cells expressing CD69 was plotted versus the log 10 of the concentration of the drug and the best-fit curves (variable Hill slope) were generated to obtain the IC50 value.
“†” represents an IC50 of greater than 10 μM. “††” represents an IC50 of greater than 1 μM and equal to or less than 10 μM (1 μM<IC50≤10 μM). “†††” represents an IC50 of less than 1 μM.

T1 sequence (Q06187 whole entry): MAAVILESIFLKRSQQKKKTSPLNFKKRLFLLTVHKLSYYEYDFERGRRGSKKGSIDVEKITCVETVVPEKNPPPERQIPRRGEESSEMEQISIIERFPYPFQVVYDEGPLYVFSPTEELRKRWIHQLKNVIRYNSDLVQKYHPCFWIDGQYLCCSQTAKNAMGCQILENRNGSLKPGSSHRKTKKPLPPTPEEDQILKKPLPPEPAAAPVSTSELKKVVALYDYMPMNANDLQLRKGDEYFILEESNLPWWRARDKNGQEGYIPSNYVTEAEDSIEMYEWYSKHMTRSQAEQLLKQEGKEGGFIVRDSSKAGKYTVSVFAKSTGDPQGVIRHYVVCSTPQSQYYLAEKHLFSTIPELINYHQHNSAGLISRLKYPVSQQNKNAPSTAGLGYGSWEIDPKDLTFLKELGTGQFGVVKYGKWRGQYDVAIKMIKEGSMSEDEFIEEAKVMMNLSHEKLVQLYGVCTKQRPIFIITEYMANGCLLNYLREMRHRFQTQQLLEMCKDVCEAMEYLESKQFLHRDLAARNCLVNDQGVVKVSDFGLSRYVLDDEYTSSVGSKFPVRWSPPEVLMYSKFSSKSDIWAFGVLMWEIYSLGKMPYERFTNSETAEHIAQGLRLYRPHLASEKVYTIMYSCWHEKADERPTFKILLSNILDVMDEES

Compound	IC50 [1] [nM]	IC50 [2] [nM]
C=CC(=O)N1CCC(c2nc(-c3cnn(C)c3)cn3nccc23)CC1 [Example 4, 1-[4-[6-(1-methylpyrazol-4-yl)pyrazolo[1,5-a]pyrazin-4-yl]-1-piperidyl]prop-2-en-1-one]	1 to 10	1000 to 10000
C=CC(=O)N1CC=C(c2nc(-c3cnn(C)c3)cn3ncc(C)c23)CC1 [Example 10, 1-[4-[3-methyl-6-(1-methylpyrazol-4-yl)pyrazolo[1,5-a]pyrazin-4-yl]-3,6-dihydro-2H-pyridin-1-yl]prop-2-en-1-one]	10 to 1000	
C=CC(=O)N1CCC[C@@H](Sc2nc(-c3cnn(C)c3)cn3nccc23)CC1 (single isomer, unassigned) [Example 30]	10 to 1000	
C=CC(=O)N(C)[C@H]1CCC[C@H](c2nc(-c3cnn(C)c3)cn3nccc23)C1 (single isomer, unassigned) [Example 25, trans-N-methyl-N-(3-(6-(1-methyl-1H-pyrazol-4-yl)pyrazolo[1,5-a]pyrazin-4-yl)cyclohexyl)acrylamide]	10 to 1000	1000 to 10000
C=CC(=O)N(C)[C@H]1CCC[C@@H](c2nc(-c3cnn(C)c3)cn3nccc23)C1 (single isomer, unassigned) [Example 26, cis-N-methyl-N-(3-(6-(1-methyl-1H-pyrazol-4-yl)pyrazolo[1,5-a]pyrazin-4-yl)cyclohexyl)acrylamide]	1 to 10	1000 to 10000
C=CC(=O)N1CCC(c2nc(-c3cnn(C)c3)cn3nccc23)C(C)C1 (stereo not drawn) [Example 15, 1-[3-methyl-4-[6-(1-methylpyrazol-4-yl)pyrazolo[1,5-a]pyrazin-4-yl]-1-piperidyl]prop-2-en-1-one]	10 to 1000	1000 to 10000
C=CC(=O)N1CCCC(c2nc(-c3cnn(C)c3)cn3nccc23)C1 (stereo not drawn) [Example 5, 1-[3-[6-(1-methylpyrazol-4-yl)pyrazolo[1,5-a]pyrazin-4-yl]-1-piperidyl]prop-2-en-1-one]	10 to 1000	
C=CC(=O)N(C)C[C@@H]1CC[C@H](c2nc(-c3cnn(C)c3)cn3nccc23)C1 (stereo in doubt) [Example 22, N-methyl-N-((3-(6-(1-methyl-1H-pyrazol-4-yl)pyrazolo[1,5-a]pyrazin-4-yl)cyclopentyl)methyl)acrylamide]	10 to 1000	
C=CC(=O)N(C)[C@@H]1CC[C@H](C(=O)c2nc(-c3cnn(C)c3)cn3nccc23)C1 (stereo in doubt) [Example 19, N-methyl-N-(3-(6-(1-methyl-1H-pyrazol-4-yl)pyrazolo[1,5-a]pyrazine-4-carbonyl)cyclopentyl)acrylamide]	1000 to 10000	< 1000
C=CC(=O)N(C)c1cccc(-c2nc(-c3cnn(C)c3)cn3nccc23)c1 [Example 29, N-methyl-N-(3-(6-(1-methyl-1H-pyrazol-4-yl)pyrazolo[1,5-a]pyrazin-4-yl)phenyl)acrylamide]	1 to 10	1000 to 10000
C=CC(=O)N1CCC(c2cc(-c3cnn(C)c3)cn3nccc23)CC1 [Example 8, 1-[4-[6-(1-methylpyrazol-4-yl)pyrazolo[1,5-a]pyridin-4-yl]-1-piperidyl]prop-2-en-1-one]	1 to 10	1000 to 10000
C=CC(=O)N(C)C[C@H]1CC[C@@H](c2nc(-c3cnn(C)c3)cn3nccc23)C1 (stereo in doubt) [Example 21, N-methyl-N-((3-(6-(1-methyl-1H-pyrazol-4-yl)pyrazolo[1,5-a]pyrazin-4-yl)cyclopentyl)methyl)acrylamide]	1 to 10	
C=CC(=O)N1CCC(c2nc(-c3cnn(C)c3)cn3nccc23)CC1C (stereo not drawn) [Example 12, 1-[2-methyl-4-[6-(1-methylpyrazol-4-yl)pyrazolo[1,5-a]pyrazin-4-yl]-1-piperidyl]prop-2-en-1-one]	10 to 1000	
C=CC(=O)N(C)C1CCC(C(=O)c2nc(-c3cnn(C)c3)cn3nccc23)C1 (single isomer, unassigned) [Example 16, N-methyl-N-(3-(6-(1-methyl-1H-pyrazol-4-yl)pyrazolo[1,5-a]pyrazine-4-carbonyl)cyclopentyl)acrylamide]	1 to 10	1000 to 10000
C=CC(=O)N(C)[C@H]1CC[C@H](C(=O)c2nc(-c3cnn(C)c3)cn3nccc23)C1 (relative stereo) [Example 18, N-methyl-N-(3-(6-(1-methyl-1H-pyrazol-4-yl)pyrazolo[1,5-a]pyrazine-4-carbonyl)cyclopentyl)acrylamide]	1000 to 10000	1000 to 10000
C=CC(=O)N(C)C[C@H]1CC[C@H](c2nc(-c3cnn(C)c3)cn3nccc23)C1 (stereo in doubt) [Example 20, N-methyl-N-((3-(6-(1-methyl-1H-pyrazol-4-yl)pyrazolo[1,5-a]pyrazin-4-yl)cyclopentyl)methyl)acrylamide]	10 to 1000	
C=CC(=O)N1CCC[C@H](Sc2nc(-c3cnn(C)c3)cn3nccc23)CC1 (single isomer, unassigned) [Example 31]	1000 to 10000	
C=CC(=O)N1CCCC(c2nc(-c3cnn(C)c3)cn3nccc23)CC1 (stereo not drawn) [Example 6, 1-[4-[6-(1-methylpyrazol-4-yl)pyrazolo[1,5-a]pyrazin-4-yl]azepan-1-yl]prop-2-en-1-one]	10 to 1000	1000 to 10000
C=CC(=O)N1C[C@H]2C[C@@H](c3nc(-c4cnn(C)c4)cn4nccc34)C[C@H]2C1 (single isomer, unassigned) [Example 1]	< 1	< 1000
C=CC(=O)N1CC2CCC1CC2c1nc(-c2cnn(C)c2)cn2nccc12 (stereo not drawn) [Example 14, 1-[5-[6-(1-methylpyrazol-4-yl)pyrazolo[1,5-a]pyrazin-4-yl]-2-azabicyclo[2.2.2]octan-2-yl]prop-2-en-1-one]	1 to 10	1000 to 10000
C=CC(=O)N1CCC(c2nc(-c3cnn(C)c3)cn3ncc(F)c23)CC1 [Example 7, 1-[4-[3-fluoro-6-(1-methylpyrazol-4-yl)pyrazolo[1,5-a]pyrazin-4-yl]-1-piperidyl]prop-2-en-1-one]	1 to 10	< 1000
C=CC(=O)Nc1cccc(-c2nc(-c3cnn(C)c3)cn3nccc23)c1 [Example 28, N-(3-(6-(1-methyl-1H-pyrazol-4-yl)pyrazolo[1,5-a]pyrazin-4-yl)phenyl) acrylamide]	10 to 1000	1000 to 10000
C=CC(=O)N(C)[C@H]1CC[C@@H](C(=O)c2nc(-c3cnn(C)c3)cn3nccc23)C1 (stereo in doubt) [Example 17, N-methyl-N-(3-(6-(1-methyl-1H-pyrazol-4-yl)pyrazolo[1,5-a]pyrazine-4-carbonyl)cyclopentyl)acrylamide]	10 to 1000	
C=CC(=O)N1CCC(c2nc(-c3cnn(C)c3)cn3ncc(C)c23)CC1 [Example 9, 1-[4-[3-methyl-6-(1-methylpyrazol-4-yl)pyrazolo[1,5-a]pyrazin-4-yl]-1-piperidyl]prop-2-en-1-one]	1 to 10	1000 to 10000
C=CC(=O)N1C2CCC1CC(c1nc(-c3cnn(C)c3)cn3nccc13)C2 (stereo not drawn) [Example 11, 1-[3-[6-(1-methylpyrazol-4-yl)pyrazolo[1,5-a]pyrazin-4-yl]-8-azabicyclo [3.2.1]octan-8-yl]prop-2-en-1-one]	1 to 10	1000 to 10000
C=CC(=O)N(C)C[C@@H]1CC[C@@H](c2nc(-c3cnn(C)c3)cn3nccc23)C1 (stereo in doubt) [Example 23, N-methyl-N-((3-(6-(1-methyl-1H-pyrazol-4-yl)pyrazolo[1,5-a]pyrazin-4-yl)cyclopentyl)methyl)acrylamide]	10 to 1000	
